Results published in US11197828B2, “Solid oral dosage form of lipophilic compounds” (SOLURAL PHARMA APS, priority 2014, dated 2021).
Marks after values point to notes of the source that are not given here.

Assays:
[1] = cited from earlier work
[2] = oral 60 mg paclitaxel equivalents/animal, fasted male beagle dogs (N = 4)
Description: (§1) The study was a randomized, balanced, single dose, parallel group study in Beagle dogs comparing pharmacokinetics in fasted state of capsules containing C11-paclitaxel and DHA-paclitaxel, respectively in SEDDS formulation S2 (see Table 1).
(§2) The strength of each capsule was 12.5 mg of paclitaxel equivalents for the C-11 paclitaxel capsule and 10 mg of paclitaxel equivalents for the DHA-paclitaxel. The total oral dosage provided was 75 mg calculated as parent compound for paclitaxel and C11-paclitaxel, respectively and 60 mg calculated as parent compound for DHA-paclitaxel.
(§3) The dogs were deprived of food from late afternoon the day prior dosing. The capsule was put directly on the aditus laryngis of the dog to ensure that the capsule is not chewed but swallowed whole. All dogs received totally 100 ml of water immediately following the dosing.
(§4) Blood samples (approximately ˜0.5 mL) were taken from each animal at each dosing occasion on 10 time points up to 24 hours after dosing including a pre-dose.
(§5) The pharmacokinetic parameters calculated are i.e. total exposure, or area under the concentration-time curve (AUC0-inf, AUC0-t), peak exposure (Cmax), time to peak exposure (Tmax), terminal half-life t1/2 and the conversion rate from prodrug to parent.

in vivo = conditions: male, beagle, dog, blood, po, 75 mg
Description: as §1, §2, §3, §4, §5

[3] = excessive first pass metabolism; cited from earlier work

## CC(=O)O[C@H]1CC[C@@]2(C)C(=CC[C@@H]3[C@@H]2CC[C@]2(C)C(c4cccnc4)=CC[C@@H]32)C1 [Abiraterone acetate]
[1]
  log P: 5.1

## C[C@@H](O)[C@@H]1NC(=O)[C@H](CCCCN)NC(=O)[C@@H](Cc2c[nH]c3ccccc23)NC(=O)[C@H](Cc2ccccc2)NC(=O)[C@@H](NC(=O)[C@H](N)Cc2ccccc2)CSSC[C@@H](C(=O)N[C@H](CO)[C@@H](C)O)NC1=O [Octreotide]
[1]
  log P: around 1

## CC/C=C\C/C=C\C/C=C\C/C=C\C/C=C\C/C=C\CCC(=O)O[C@@H](C(=O)O[C@H]1C[C@@]2(O)[C@@H](OC(=O)c3ccccc3)[C@@H]3[C@]4(OC(C)=O)CO[C@@H]4C[C@H](O)[C@@]3(C)C(=O)[C@H](OC(C)=O)C(=C1C)C2(C)C)[C@@H](NC(=O)c1ccccc1)c1ccccc1 [Paclitaxel-DHA, paclitaxel docosahexaenoate]
[2]; conversion prodrug to parent
  AUC0-t(parent)/AUC0-t(prodrug): 22.3%
[2]
  AUC0-t of paclitaxel (parent): 0.0733 µg·h/mL
  AUC0-t of prodrug: 402^e) hr * ng/mL
  AUC0-∞ of paclitaxel (parent): 0.0972 µg·h/mL
  AUC0-∞ of prodrug: 643^f) hr * ng/mL
  Cmax of paclitaxel (parent): 0.0104 µg/mL
  Cmax of prodrug: 63.8^d) ng/mL
  Tmax of paclitaxel (parent): 2.25 h
  Tmax of prodrug: 4.50 h
  t1/2 of paclitaxel (parent): 11.6 h
  t1/2 of prodrug: 6.33 h

## CC(=O)O[C@H]1C(=O)[C@@]2(C)[C@H]([C@H](OC(=O)c3ccccc3)[C@]3(O)C[C@H](OC(=O)[C@H](O)[C@@H](NC(=O)c4ccccc4)c4ccccc4)C(C)=C1C3(C)C)[C@]1(OC(C)=O)CO[C@@H]1C[C@@H]2O [Paclitaxel]
In vivo
  AUC(0-inf): 0.973 µg·h/mL
  AUC(0-t): 0.771 µg·h/mL
  Cmax: 0.148 µg/mL
  Tmax: 2.5 h
  half-life: 13.7 h

## CCCCCCCCCCC(=O)O[C@H]1CC[C@H]2[C@@H]3CCC4=CC(=O)CC[C@]4(C)[C@H]3CC[C@]12C [Testosterone undecanoate]
[1]
  log P: about 8.7

## CC(C)c1cccc(C(C)C)c1O [propofol, 2,6-diisopropylphenol]
[3]
  oral bioavailability: ≤ 3%
